Key:
Type in all cases: cell-based
[1] = biological target: T1, ERα (Homo sapiens, UniProt P03372); assay: ERα degradation in MCF-7 cells (Western blot); set-up: host or cells: MCF-7; conditions: 4 hours
T1 sequence (P03372 1-595): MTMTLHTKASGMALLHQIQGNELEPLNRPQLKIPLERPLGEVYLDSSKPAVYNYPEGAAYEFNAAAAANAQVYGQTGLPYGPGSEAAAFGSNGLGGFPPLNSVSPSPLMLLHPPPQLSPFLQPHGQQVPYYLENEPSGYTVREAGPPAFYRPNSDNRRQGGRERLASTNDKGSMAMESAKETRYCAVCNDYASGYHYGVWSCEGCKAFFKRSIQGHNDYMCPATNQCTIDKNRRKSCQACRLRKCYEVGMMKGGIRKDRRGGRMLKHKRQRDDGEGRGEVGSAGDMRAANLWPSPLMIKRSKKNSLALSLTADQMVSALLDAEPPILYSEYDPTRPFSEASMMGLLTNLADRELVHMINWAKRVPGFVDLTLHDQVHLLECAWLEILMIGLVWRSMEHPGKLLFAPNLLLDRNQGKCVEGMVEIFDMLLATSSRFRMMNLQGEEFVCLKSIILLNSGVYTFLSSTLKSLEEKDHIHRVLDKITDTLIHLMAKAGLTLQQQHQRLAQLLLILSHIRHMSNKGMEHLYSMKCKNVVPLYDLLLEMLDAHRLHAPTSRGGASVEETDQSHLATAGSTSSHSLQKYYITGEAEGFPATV
Procedure: Test Example 4 Effect of PROTAC Compounds Disclosed in the Present Invention on ERα Degradation in MCF-7 Cells
MCF-7 (ATCC) cells were cultured in DMEM medium (11995-065, Gibco) containing 10% FBS (10099141C, Gibco) at 37°C and 5% CO2 until they entered the logarithmic growth phase. MCF-7 cells were plated at a density of 3×10^5 cells/well in a 6-well plate and incubated at 37°C, 5% CO2 for 24 hours. After cell attachment, 1µL of compound in dimethyl sulfoxide (final concentration 0.15-1000nM) was added and incubated for another 4 hours at 37°C, 5% CO2 incubator. After 4 hours, the culture medium was discarded, and each well was washed once with 1 mL of pre-chilled 1× DPBS. The cells were then lysed with 50 µL of RIPA lysis buffer (P0013B, Beyotime) and 1× protease inhibitor cocktail (P1005, Beyotime). After incubation on ice for 20 minutes, the cells were centrifuged at 14,000 g at 4°C for 30 minutes. The supernatant was carefully collected and analyzed for ERα protein levels by immunoblotting.
(§1) Western blotting: The total protein concentration in the collected cell lysate supernatant was determined using the BCA protein concentration assay kit (enhanced) (P0009, Beyotime). Based on the total protein concentration determined by BCA, the protein concentration was adjusted to 1 µg/µL using RIPA lysis buffer and 5× SDS-PAGE protein loading buffer (MB01015, GenScript). The protein was denatured in a 95°C water bath for 5 minutes. After denaturation, the condensed water on the tube wall was collected by centrifugation and used as the loading sample. 20µL of the loading sample (20 µg of total protein) was added to the sample well of a 12% precast gel (M00669, GenScript). Electrophoresis was performed at 100 V for 20 minutes, followed by switching to 150 V for 40 minutes. After electrophoresis, the proteins from the SDS-PAGE gel were transferred to a PVDF membrane at a constant voltage of 100 V for 60 minutes. After transfer, the PVDF membrane corresponding to the ERα protein and internal reference protein was cut and incubated in 1× QµickBlock blocking buffer (P0252, Beyotime) for 30 minutes at room temperature on a shaker. After blocking, the ERα primary antibody (1:1000, 8644S, CST) was added and incubated overnight at 4°C on a shaker. The PVDF membrane was washed three times with 1× TBST buffer for 5 minutes each. Rabbit IgG (H+L) secondary antibody (1:7500, SA5-35571, Invitrogen) was added and incubated for 1 hour at room temperature on a shaker. The membrane was then washed again three times with 1× TBST buffer for 5 minutes each. Finally, the membrane was imaged using a dual-color infrared laser imaging system (Odyssey DLx, LICOR). Protein maps were analyzed for grayscale value using Image Studio Lite software. The grayscale correction value for each sample was calculated using the formula: grayscale correction value = grayscale value of the target protein / grayscale value of the corresponding internal reference. Then the grayscale correction values of the compound group and the control group were compared to calculate the degradation rate of the compound. Table 4 Degradation rate of ERα by PROTAC compounds of the present invention and positive control in MCF-7 cells (%)

[2] = tested on: MCF-7 cells; assay: Inhibition of cell proliferation in MCF-7 cells (CCK-8); conditions: MCF-7 cell proliferation, 6 days treatment
Method in brief: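 MCF-7 cells, 800 per well in DMEM plus 10% FBS, exposed to graded PROTAC concentrations for 6 days at 37 °C, 5% CO2. Viability by CCK-8; IC50 fitted from inhibition rates.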

[3] = biological target: T1, ERα; assay: ERα degradation in T-47D cells (Western blot); conditions: 4 hours
Procedure: as §1
Test Example 5 Degradation of ERα by the PROTAC compounds disclosed in the present invention in T-47D cells
T-47D (ATCC) cells were cultured in PRMI-1640 medium (30-2001, ATCC) containing 10% FBS (10099141C, Gibco) at 37°C and 5% CO2 until they entered the logarithmic growth phase. T-47D cells were seeded at a density of 3×10^5 cells/well in a 6-well plate and incubated at 37°C, 5% CO2 for 24 hours. After cell attachment, 1 µL of compound dimethyl sulfoxide solution (final concentration 0.15-1000 nM) was added and incubated for another 4 hours at 37°C, 5% CO2 incubator. After 4 hours, the culture medium was discarded, and each well was washed once with 1 mL of pre-chilled 1× DPBS. The cells were then lysed with 50 µL of RIPA lysis buffer (P0013B, Beyotime) and 1× protease inhibitor cocktail (P1005, Beyotime). After incubation on ice for 20 minutes, the cells were centrifuged at 14,000 g at 4°C for 30 minutes. The supernatant was carefully collected and analyzed for ERα protein levels by immunoblotting. Table 5 Degradation rate of ERα by PROTAC compounds of the present invention and positive control sample in T-47D cells (%)

[4] = tested on: T-47D cells; assay: Inhibition of cell proliferation in T-47D cells (CCK-8); conditions: 6 days treatment, CCK-8 cell viability
Method in brief: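 T-47D cells (3,000/well) in RPMI-1640 with 10% FBS were exposed to a concentration range of PROTAC compounds for 6 days at 37 °C, 5% CO2. Viability read by CCK-8; IC50 fitted from inhibition rate.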

Row | Compound | Degradation rate of ERα in MCF-7 cells (%) ([1]; 1nM) | Degradation rate of ERα in MCF-7 cells (%) ([1]; 10nM) | IC50 ([2]; Homo sapiens, MCF7, 144 h) | Degradation rate of ERα in T-47D cells (%) ([3]; 1nM) | Degradation rate of ERα in T-47D cells (%) ([3]; 10nM) | IC50 ([4]; Homo sapiens, T47D, 144 h) | IC50 [4] | IC50 [2]
1 | Cn1c(=O)n(C2CCC(=O)NC2=O)c2cc3c(cc21)C1(CCN(C2CCN(C(=O)C4CCN(c5ccc([C@@H]6c7ccc(O)cc7CC[C@@H]6c6ccccc6)cc5)CC4)CC2)CC1)CO3 (stereo partly drawn) [ER-P-14, 3-(1'-(1-(1-(4-((1R,2S)-6-hydroxy-2-phenyl-1,2,3,4-tetrahydronaphthalen-1-yl)phenyl)piperidine-4-carbonyl)piperidin-4-yl)-1-methyl-2-oxo-1,2-dihydro-3H,6H-spiro[benzofuro[5,6-d]imidazole-7,4'-piperidin]-3-yl)piperidine-2,6-dione] | 69% | 63% | 34.6 nM | 64% | 61% | 0.81 nM |  | 
2 | Cn1c(=O)n(C2CCC(=O)NC2=O)c2ccc3c(c21)OCC31CCN(C2CC3(CCN(c4ccc([C@@H]5c6ccc(O)cc6CC[C@@H]5c5ccccc5)cc4)CC3)C2)CC1 (stereo partly drawn) [ER-P-15, 3-(1'-(7-(4-((1R,2S)-6-hydroxy-2-phenyl-1,2,3,4-tetrahydronaphthalen-1-yl)phenyl)-7-azaspiro[3.5]nonan-2-yl)-1-methyl-2-oxo-1,2-dihydro-3H,7H-spiro[benzofuro[6,7-d]imidazole-6,4'-piperidin]-3-yl)piperidine-2,6-dione] | 22% | 26% | 2980 nM | 44% | 31% |  | 0.65 nM | 
3 | Cn1c(=O)n(C2CCC(=O)NC2=O)c2ccc3c(c21)OCC31CCN(C2CCC3(CC2)CCN(c2ccc([C@@H]4c5ccc(O)cc5CC[C@@H]4c4ccccc4)cc2)CC3)CC1 (stereo partly drawn) [ER-P-16, 3-(1'-(3-(4-((1R,2S)-6-hydroxy-2-phenyl-1,2,3,4-tetrahydronaphthalen-1-yl)phenyl)-3-azaspiro[5.5]undecan-9-yl)-1-methyl-2-oxo-1,2-dihydro-3H,7H-spiro[benzofuro[6,7-d]imidazole-6,4'-piperidin]-3-yl)piperidine-2,6-dione] | 43% | 62% | 885 nM | 69% | 73% | 0.62 nM |  | 
4 | Cn1c(=O)n(C2CCC(=O)NC2=O)c2ccc3c(c21)OCC31CCN(C2CC3(CCN(c4ccc([C@@H]5c6ccc(O)cc6CC[C@@H]5c5ccccc5)cc4)CC3)C2)CC1 (stereo partly drawn) [ER-P-17, 3-(1'-(7-(4-((1R,2S)-6-hydroxy-2-phenyl-1,2,3,4-tetrahydronaphthalen-1-yl)phenyl)-7-azaspiro[3.5]nonan-2-yl)-1-methyl-2-oxo-1,2-dihydro-3H,7H-spiro[benzofuro[6,7-d]imidazole-6,4'-piperidin]-3-yl)piperidine-2,6-dione] | 37% | 33% |  | 22% | 30% |  | 20.9 nM | 4560 nM
5 | Cn1c(=O)n(C2CCC(=O)NC2=O)c2ccc3c(c21)OCC31CCN(C2CC3(C2)CN(c2ccc([C@@H]4c5ccc(O)cc5CC[C@@H]4c4ccccc4)cc2)C3)CC1 (stereo partly drawn) [ER-P-18, 3-(1'-(2-(4-((1R,2S)-6-hydroxy-2-phenyl-1,2,3,4-tetrahydronaphthalen-1-yl)phenyl)-2-azaspiro[3.3]heptan-6-yl)-1-methyl-2-oxo-1,2-dihydro-3H,7H-spiro[benzofuro[6,7-d]imidazole-6,4'-piperidin]-3-yl)piperidine-2,6-dione] | 33% | 18% | 7240 nM | 20% | 23% | 13.7 nM |  | 
6 | Cn1c(=O)n(C2CCC(=O)NC2=O)c2ccc3c(c21)C1(CCN(C2CCC4(CC2)CN(c2ccc([C@@H]5c6ccc(O)cc6CC[C@@H]5c5ccccc5)cc2)C4)CC1)CO3 (stereo partly drawn) [ER-P-19, 3-(1'-(2-(4-((1R,2S)-6-hydroxy-2-phenyl-1,2,3,4-tetrahydronaphthalen-1-yl)phenyl)-2-azaspiro[3.5]nonan-7-yl)-1-methyl-2-oxo-1,2-dihydro-3H,7H-spiro[benzofuro[4,5-d]imidazole-8,4'-piperidin]-3-yl)piperidine-2,6-dione] | -8% | 7% | 4460 nM | 6% | 15% | 10.3 nM |  | 
7 | CN(C(=O)CN1CCC2(CC1)CCC1(CC2)COc2c1ccc1c2CN(C2CCC(=O)NC2=O)C1=O)C1CCC2(CC1)CN(c1ccc([C@@H]3c4ccc(O)cc4CC[C@@H]3c3ccccc3)cc1)C2 (stereo partly drawn) [ER-P-20, 2-(7-(2,6-dioxohesperidin-3-yl)-6-oxo-7,8-dihydro-2H,6H-dipyrazole[furo[2,3-e]isoindole-3,1'-cyclohexane-4',4'-piperidin]-1"-yl)-N-(2-(4-((1R,2S)-6-hydroxy-2-phenyl-1,2,3,4-tetrahydronaphthalen-1-yl)phenyl)-2-azaspiro[3.5]nonan-7-yl)-N-methylacetamide] | 5% | 30% | 2230 nM | 38% | 66% | 5.02 nM |  | 
